Earlier results as cited in US9848955B2, “Resorbable pouches for implantable medical devices” (TYRX Inc., priority 2006, dated 2017).

Tested on: myofibroblast formation
Settings: animal studies of capsular contracture with breast implants [Ajmal et al. (2003)]

O=S(=O)([O-])CCS.[Na+] [Mesna, sodium 2-mercaptoethane sulfonate]
myofibroblast formation: diminish myofibroblast formation
